Assay results from patent US12336981B2, “Compounds and compositions for the inhibition of NAMPT” (Valo Health, Inc., priority 2010, dated 2025).
Like-named read-outs stand apart in the source and are kept apart here.

Tests used:
NAMPT = target: T1, NAMPT (Homo sapiens, UniProt P43490); experiment: Biochemical inhibition assay: NAMPT enzymatic reaction, NMN quantified by mass spectrometry; conditions: read-out: Biochem IC50
T1 construct: His tag; host or cells: E. coli
How it was run: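 Inhibition of E. coli-expressed His-tagged human NAMPT, measured as NMN formation by mass spectrometry after a 30 min room-temperature reaction containing 1 μM NAM, 100 μM PRPP and 2.5 mM ATP.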

A2780 cells = experiment: In-vitro cell proliferation assay (SRB), A2780 cells; format: cell-based; conditions: Homo sapiens, A2780, 72 h, A2780 cells, 72 hours, read-out: A2780 IC50
How it was run: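 Proliferation is assessed by sulforhodamine B staining following a 72-hour incubation with compound dilutions containing 0.1% DMSO.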

T1 sequence (P43490 whole entry): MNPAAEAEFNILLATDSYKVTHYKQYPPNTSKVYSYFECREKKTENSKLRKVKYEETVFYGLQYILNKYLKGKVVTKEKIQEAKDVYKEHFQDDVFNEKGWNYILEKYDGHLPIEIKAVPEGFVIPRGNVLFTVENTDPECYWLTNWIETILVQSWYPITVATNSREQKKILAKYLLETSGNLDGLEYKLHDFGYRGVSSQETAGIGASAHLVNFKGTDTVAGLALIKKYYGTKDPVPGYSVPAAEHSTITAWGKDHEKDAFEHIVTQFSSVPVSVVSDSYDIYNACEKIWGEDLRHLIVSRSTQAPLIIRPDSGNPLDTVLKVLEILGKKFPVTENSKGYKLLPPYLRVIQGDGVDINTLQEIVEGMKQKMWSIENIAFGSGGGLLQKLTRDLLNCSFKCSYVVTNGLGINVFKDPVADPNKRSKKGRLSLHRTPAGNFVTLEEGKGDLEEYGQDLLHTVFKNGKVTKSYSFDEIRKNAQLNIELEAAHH

| SMILES | IC50 (NAMPT; NAMPT enzymatic reaction) | IC50 (A2780 cells; SRB) | IC50 (NAMPT; NAMPT enzymatic assay) | IC50 (A2780 cells; SRB assay) |
| --- | --- | --- | --- | --- |
| O=C(NCc1ccc(S(=O)(=O)c2ccc(F)cc2F)cc1)c1ccc2nccn2c1 [N-({4-[(2,4-difluorobenzene)sulfonyl]phenyl}methyl)imidazo[1,2-a]pyridine-6-carboxamide] | 28.3 nM | 28.1 nM | – | – |
| CCCCOc1ccc(S(=O)(=O)c2ccc(CNC(=O)c3ccc4nccn4c3)cc2)c(C)c1 | 10 nM | 22.4 nM | – | – |
| O=C(NCc1ccc(S(=O)(=O)c2cccc3c2OCO3)cc1)c1cc2ccncc2o1 [N-{[4-(2H-1,3-benzodioxole-4-sulfonyl)phenyl]methyl}furo[2,3-c]pyridine-2-carboxamide] | – | 26.6 nM | 25.8 nM | – |
| Cc1cc(C(F)(F)F)ccc1S(=O)(=O)c1ccc(CNC(=O)c2cc3ccncc3s2)cc1 | – | 24.2 nM | 10.3 nM | – |
| COc1cccc(C)c1NS(=O)(=O)c1ccc(CNC(=O)c2cc3cnccc3[nH]2)cc1 [N-({4-[(2-methoxy-6-methylphenyl)sulfamoyl]phenyl}methyl)-1H-pyrrolo[3,2-c]pyridine-2-carboxamide] | 6 nM | – | – | 12400 nM |
| O=C(NCc1ccc(S(=O)(=O)c2cccc(C(F)(F)F)c2)cc1)c1cc2ccncc2o1 | – | 4.8 nM | 5.4 nM | – |
| COc1cc(F)ccc1S(=O)(=O)c1ccc(CNC(=O)c2ccc3nccn3c2)cc1 [N-({4-[(4-fluoro-2-methoxybenzene)sulfonyl]phenyl}methyl)imidazo[1,2-a]pyridine-6-carboxamide] | 19.3 nM | 7.05 nM | – | – |
| COc1ccc(OC)c(S(=O)(=O)c2ccc(CNC(=O)c3cc4ccncc4o3)cc2)c1OC | 39.9 nM | 66.7 nM | – | – |
| COc1ccccc1S(=O)(=O)c1ccc(CNC(=O)c2cc3ccncc3o2)cc1 [N-({4-[(2-methoxybenzene)sulfonyl]phenyl}methyl)furo[2,3-c]pyridine-2-carboxamide] | 18.9 nM | 26.5 nM | – | – |
| COc1ccc(S(=O)(=O)c2ccc(CNC(=O)c3cc4ccncc4s3)cc2)cc1 [N-({4-[(4-methoxybenzene)sulfonyl]phenyl}methyl)thieno[2,3-c]pyridine-2-carboxamide] | 5 nM | – | – | 2.7 nM |
| CCCCOc1ccc(S(=O)(=O)c2ccc(CNC(=O)c3cnc4[nH]ncc4c3)cc2)c(C)c1 [N-({4-[(4-butoxy-2-methylbenzene)sulfonyl]phenyl}methyl)-1H-pyrazolo[3,4-b]pyridine-5-carboxamide] | 70.9 nM | 68.8 nM | – | – |
| CC(C)COc1cccc(S(=O)(=O)c2ccc(CNC(=O)c3ccc4nccn4c3)cc2)c1 | – | 10.6 nM | 15.7 nM | – |
| CCOc1ccccc1S(=O)(=O)c1ccc(CNC(=O)c2cc3ccncc3s2)cc1 [N-({4-[(2-ethoxybenzene)sulfonyl]phenyl}methyl)thieno[2,3-c]pyridine-2-carboxamide] | 2 nM | – | – | 0.8 nM |
| Cc1cc(Cl)cnc1S(=O)(=O)c1ccc(CNC(=O)c2cnc3nccn3c2)cc1 [N-{[4-(5-chloro-3-methylpyridine-2-sulfonyl)phenyl]methyl}imidazo[1,2-a]pyrimidine-6-carboxamide] | – | 22 nM | 2.2 nM | – |
| O=C(NCc1ccc(S(=O)(=O)c2ccc(F)c(C(F)(F)F)c2)cc1)c1cc2ccncc2o1 | – | 7.2 nM | 8.2 nM | – |
| CC(C)Oc1ccc(Cl)cc1S(=O)(=O)c1ccc(CNC(=O)c2cc3ccncc3o2)cc1 | – | 12.1 nM | 9.1 nM | – |
| CN(C)c1ccc(S(=O)(=O)c2ccc(CNC(=O)c3ccc4nccn4c3)cc2)cn1 [N-({4-[6-(dimethylamino)pyridine-3-sulfonyl]phenyl}methyl)imidazo[1,2-a]pyridine-6-carboxamide] | – | 2.7 nM | 44.9 nM | – |
| NS(=O)(=O)c1cccc(S(=O)(=O)c2ccc(CNC(=O)c3cc4ccncc4s3)cc2)c1 | 2 nM | 12.1 nM | – | – |
| Cc1ccc(S(=O)(=O)c2ccc(CNC(=O)c3cc4ccncc4s3)cc2)c(Cl)c1 | 24.9 nM | 1.6 nM | – | – |
| O=C(NCc1ccc(S(=O)(=O)c2ccc3c(c2)OCO3)cc1)c1cc2ccncc2o1 [N-{[4-(2H-1,3-benzodioxole-5-sulfonyl)phenyl]methyl}furo[2,3-c]pyridine-2-carboxamide] | – | 8.7 nM | 5.3 nM | – |
| O=C(NCc1ccc(S(=O)(=O)c2c(Cl)cccc2Cl)cc1)c1ccc2nccn2c1 | 1.2 nM | 18.8 nM | – | – |
| Cc1cc(C)cc(S(=O)(=O)c2ccc(CNC(=O)c3cnc4nccn4c3)cc2)c1 | 1.7 nM | 2 nM | – | – |
| O=C(NCc1ccc(S(=O)(=O)c2ccc(-n3cccn3)c(F)c2)cc1)c1ccc2nccn2c1 [N-[(4-{[3-fluoro-4-(1H-pyrazol-1-yl)benzene]sulfonyl}phenyl)methyl]imidazo[1,2-a]pyridine-6-carboxamide] | – | 3.41 nM | 5.37 nM | – |

| SMILES | IC50 (NAMPT; NAMPT enzymatic reaction) | IC50 (A2780 cells; SRB) | IC50 (NAMPT; NAMPT enzymatic assay) | IC50 (A2780 cells; SRB assay) |
| --- | --- | --- | --- | --- |
| COc1cc(-n2cccn2)ccc1S(=O)(=O)c1ccc(CNC(=O)c2ccc3nccn3c2)cc1 [N-[(4-{[2-methoxy-4-(1H-pyrazol-1-yl)benzene]sulfonyl}phenyl)methyl]imidazo[1,2-a]pyridine-6-carboxamide] | – | 3.59 nM | 21 nM | – |
| Cc1c(Cl)cccc1S(=O)(=O)c1ccc(CNC(=O)c2cnc3[nH]ncc3c2)cc1 [N-({4-[(3-chloro-2-methylbenzene)sulfonyl]phenyl}methyl)-1H-pyrazolo[3,4-b]pyridine-5-carboxamide] | 36.9 nM | 16.1 nM | – | – |
| O=C(NCc1ccc(S(=O)(=O)c2ccc(Cl)cc2)cc1)c1cc2ccncc2o1 [N-({4-[(4-chlorobenzene)sulfonyl]phenyl}methyl)furo[2,3-c]pyridine-2-carboxamide] | 4.9 nM | 14.2 nM | – | – |
| O=C(NCc1ccc(S(=O)(=O)c2ccc(Cl)c(Cl)c2)cc1)c1cc2ccncc2o1 | 10.4 nM | 4.8 nM | – | – |
| O=C(NCc1ccc(S(=O)(=O)c2cnc3ccc(Cl)cn23)cc1)c1cc2cnccc2[nH]1 [N-[(4-{6-chloroimidazo[1,2-a]pyridine-3-sulfonyl}phenyl)methyl]-1H-pyrrolo[3,2-c]pyridine-2-carboxamide] | – | 1.4 nM | 13.2 nM | – |
| O=C(NCc1ccc(S(=O)(=O)c2cc(F)cc(N3CCCC3)c2)cc1)c1cnc2nccn2c1 | – | 2 nM | 3.1 nM | – |
| O=C(NCc1ccc(S(=O)(=O)N2CC3CCC(C2)O3)cc1)c1ccc2nccn2c1 [N-[(4-{8-oxa-3-azabicyclo[3.2.1]octane-3-sulfonyl}phenyl)methyl]imidazo[1,2-a]pyridine-6-carboxamide] | 4 nM | – | – | 3 nM |
| O=C(NCc1ccc(S(=O)(=O)c2cc(Cl)cc(CO)c2)cc1)c1cnc2nccn2c1 | – | 11.4 nM | 3.4 nM | – |
| O=C(NCc1ccc(S(=O)(=O)c2cnn(-c3cccc(Cl)c3)c2)cc1)c1cnc2[nH]ncc2c1 [N-({4-[1-(3-chlorophenyl)-1H-pyrazole-4-sulfonyl]phenyl}methyl)-1H-pyrazolo[3,4-b]pyridine-5-carboxamide] | – | 55.6 nM | 28.2 nM | – |
| CC(C)Oc1ccc(Cl)cc1S(=O)(=O)c1ccc(CNC(=O)c2cnc3nccn3c2)cc1 [N-[(4-{[5-chloro-2-(propan-2-yloxy)benzene]sulfonyl}phenyl)methyl]imidazo[1,2-a]pyrimidine-6-carboxamide] | – | 14.6 nM | 4.7 nM | – |
| CN(C)c1ncc(S(=O)(=O)c2ccc(CNC(=O)c3cc4ccncc4o3)cc2)cn1 [N-({4-[2-(dimethylamino)pyrimidine-5-sulfonyl]phenyl}methyl)furo[2,3-c]pyridine-2-carboxamide] | – | 12 nM | 25.8 nM | – |
| COc1c(C)cc(S(=O)(=O)c2ccc(CNC(=O)c3cnc4[nH]ncc4c3)cc2)cc1C [N-({4-[(4-methoxy-3,5-dimethylbenzene)sulfonyl]phenyl}methyl)-1H-pyrazolo[3,4-b]pyridine-5-carboxamide] | 5 nM | 1.85 nM | – | – |
| CCOc1ccc(S(=O)(=O)c2ccc(CNC(=O)c3ccc4nccn4c3)cc2)cc1F | 12.7 nM | 1.8 nM | – | – |
| Cc1cc(-n2cccn2)ccc1S(=O)(=O)c1ccc(CNC(=O)c2cc3ccncc3o2)cc1 | – | 6 nM | 6.2 nM | – |
| COc1ccc(C(C)C)cc1S(=O)(=O)c1ccc(CNC(=O)c2cc3ccncc3s2)cc1 [N-[(4-{[2-methoxy-5-(propan-2-yl)benzene]sulfonyl}phenyl)methyl]thieno[2,3-c]pyridine-2-carboxamide] | 9 nM | – | – | 6.2 nM |
| COc1cc(S(=O)(=O)c2ccc(CNC(=O)c3cc4ccncc4s3)cc2)ccc1C | 2.7 nM | 1.5 nM | – | – |
| O=C(NCc1ccc(S(=O)(=O)c2c(Cl)cccc2Cl)cc1)c1cnc2[nH]ncc2c1 | 180 nM | 1000 to 10000 nM | – | – |
| O=C(NCc1ccc(S(=O)(=O)c2ccc(C(F)(F)F)cc2F)cc1)c1ccc2nccn2c1 | – | 15.7 nM | 15.6 nM | – |
| O=C(NCc1ccc(S(=O)(=O)CCCCc2ccccc2)cc1)c1cc2cnccc2[nH]1 [N-({4-[(4-phenylbutane)sulfonyl]phenyl}methyl)-1H-pyrrolo[3,2-c]pyridine-2-carboxamide] | 216 nM | 71.5 nM | – | – |
| CCN(CC)C(=O)c1ccc(F)c(S(=O)(=O)c2ccc(CNC(=O)c3cc4cnccc4[nH]3)cc2)c1 | – | 26.2 nM | 38.4 nM | – |
| COc1ccc(NS(=O)(=O)c2ccc(CNC(=O)c3cc4cnccc4[nH]3)cc2)c(OC)c1 [N-({4-[(2,4-dimethoxyphenyl)sulfamoyl]phenyl}methyl)-1H-pyrrolo[3,2-c]pyridine-2-carboxamide] | – | 6.9 nM | 5.8 nM | – |
| O=C(NCc1ccc(S(=O)(=O)c2cc(F)cc(OCC(F)(F)F)c2)cc1)c1cnc2nccn2c1 | – | 1.5 nM | 1.9 nM | – |
| O=C(NCc1ccc(S(=O)(=O)c2cccc(OCCN3CCOCC3)c2)cc1)c1cc2cnccc2[nH]1 | – | 12.6 nM | 64.9 nM | – |
